Test results: US10730863B2, “Bridged bicyclic compounds as farnesoid X receptor modulators” (BRISTOL-MYERS SQUIBB COMPANY, priority 2017, dated 2020)

Molecular target: FXR (Homo sapiens (Human), UniProt Q96RI1)
Assay: transient human FXR/Gal4-luciferase reporter assay
Type: cell-based
Details: Gal4-hFXR LBD fusion in HEK293 reporter cells; relative to 8 μM GW-4064
Experimental: The exemplified compounds of the present invention were tested in the transient human FXR/Gal4-luciferase reporter assay, and assay results were described in the EXAMPLES section hereinbefore.
A Gal4-hFXR fusion construct reporter system was used as the primary assay to characterize compound activity. A construct including 5 copies of the Gal4 promoter response element upstream of a firefly luciferase reporter cDNA was stably expressed in HEK293 cells. This reporter cell line was maintained in Dulbecco's Modified Eagle's medium (DMEM; Gibco) supplemented with 1% penicillin-streptomycin (P/S) solution, 500 μg/ml Zeocin and 10% charcoal/dextran-treated fetal bovine serum (cs-FBS) at 37° C. in a humidified 5% CO2 atmosphere. Another plasmid was constructed in which the human cytomegalovirus promoter in the pcDNA3.1 vector directs the expression of the cDNA encoding a fusion protein comprised of the DNA binding domain from the Gal4 transcription factor fused to the ligand binding domain from human FXR.
The day prior to transfection, the reporter cells in culture are detached from the plate with trypsin and plated into a T75 flask at a sufficient density to achieve approximately 90% confluence the next morning. The transfection reagents are prepared by separately diluting 25 μg of the pcDNA3.1-Gal4-FXR plasmid into 1.87 mL of Opti-MEM (Thermo-Fisher), and 40 μL of Lipofectamine 2000 (Thermo-Fisher) into 1.87 mL of Opti-MEM, and then adding the diluted DNA solution into the diluted Lipofectamine 2000 solution and incubating at room temperature for 15-20 minutes. The mixture is further diluted with 10 mL of a solution comprised of DMEM, 10% cs-FBS, and 1% P/S immediately prior to transferring to the cells. The maintenance culture media is aspirated from the cells and the final transfection mixture is added before the cells are incubated overnight at 37° C. in a humidified 5% CO2 atmosphere. This protocol can be scaled up, and the transiently transfected cells can be cryopreserved in an assay-ready format.
For compound testing, 100 nL of the compounds (serial dilutions in DMSO) are dispensed with an Echo acoustic dispenser (Labcyte) into the wells of a Corning/Costar clear bottom 384-well white plate. The transfected cells are harvested, counted, and diluted such that 10-25,000 cells in 25 μL are plated into each well of the 384-well compound assay plate. The compound-treated cells are incubated overnight at 37° C. in a humidified 5% CO2 atmosphere. The next morning 25 μL of Steady-Glo (Promega) are added to each well of the plate, the mixture is incubated for 15 min. with shaking, and luminescence is measured on an Envision (Perkin Elmer) plate reader. Background counts from cells treated with DMSO alone are subtracted from all raw counts, and the corrected values are converted to a percentage of the control response attained with 8 μM GW-4064.

Sequence of FXR (Q96RI1 262-486): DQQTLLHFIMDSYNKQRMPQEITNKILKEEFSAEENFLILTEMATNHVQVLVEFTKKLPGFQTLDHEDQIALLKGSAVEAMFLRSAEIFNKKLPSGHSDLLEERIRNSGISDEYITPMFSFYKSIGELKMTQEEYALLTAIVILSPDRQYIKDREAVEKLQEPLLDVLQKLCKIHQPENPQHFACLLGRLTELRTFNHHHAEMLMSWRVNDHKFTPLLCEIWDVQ

Compound | EC50 [nM]
O=C(O)c1cc2ccc(C#CC34CCC(OCc5c(-c6c(Cl)cncc6Cl)noc5C5CC5)(CC3)CC4)cc2c(N2CC(F)C2)n1 [Example 553] | 12
CCc1cc(OCC23CCC(OCc4c(-c5c(Cl)cncc5Cl)noc4C4CC4)(CC2)CC3)nn1CC(=O)O [Example 524] | 1500
O=C(O)c1cc(OCC23CCC(OCc4c(-c5c(Cl)cncc5Cl)noc4C4CC4)(CC2)CC3)nn1CC1CC1 [Example 528] | 16
Cn1nc(NCC23CCC(OCc4c(-c5c(Cl)cccc5Cl)noc4C4CC4)(CC2)CC3)cc1C(=O)O [Example 581] | 265
O=C(O)c1cnc(N2CCC2)c(C#CC23CCC(OCc4c(-c5c(Cl)cncc5Cl)noc4C4CC4)(CC2)CC3)c1 [Example 562] | 21
CCOc1nc(C(=O)O)cc2ccc(/C=C/C34CCC(OCc5c(-c6c(Cl)cncc6Cl)noc5C5CC5)(CC3)CC4)cc12 [Example 604] | 44.1
O=C(O)c1csc(-c2ccc(/C=C/C34CCC(OCc5c(-c6c(Cl)cncc6Cl)noc5C5CC5)(CC3)CC4)cc2)n1 [Example 628] | 72
O=C(O)c1cc2ccc(C#CC34CCC(OCc5c(-c6c(Cl)cncc6Cl)noc5C5CC5)(CC3)CC4)cc2c(N2CCC(O)CC2)n1 [Example 558] | 20
Cc1c(OCC23CCC(OCc4c(-c5c(Cl)cncc5Cl)noc4C4CC4)(CC2)CC3)nn(CC2COC2)c1C(=O)O [Example 533] | 1910
O=C(O)c1cc2ccc(/C=C/C34CCC(OCc5c(-c6c(Cl)cncc6Cl)noc5C5CC5)(CC3)CC4)cc2c(OC2CC2)n1 [Example 614] | 51
O=C(O)c1cc(OCC23CCC(OCc4c(-c5c(Cl)cncc5Cl)noc4C4CC4)(CC2)CC3)nn1C1CC1 [Example 539] | 25
O=C(O)CCc1cccc(/C=C/C23CCC(OCc4c(-c5c(Cl)cncc5Cl)noc4C4CC4)(CC2)CC3)c1 [Example 623] | 843
O=C(O)COc1ccc(C#CC23CCC(OCc4c(-c5c(Cl)cncc5Cl)noc4C4CC4)(CC2)CC3)c(F)c1 [Example 554] | 3160
O=C(O)c1cc2ccc(/C=C/C34CCC(OCc5c(-c6c(Cl)cncc6Cl)noc5C5CC5)(CC3)CC4)cc2c(Cl)n1 [Example 599] | 15
CN1CCN(c2nc(C(=O)O)cc3cc(C#CC45CCC(OCc6c(-c7c(Cl)cncc7Cl)noc6C6CC6)(CC4)CC5)ccc23)CC1 [Example 570] | 201
Clc1cncc(Cl)c1-c1noc(C2CC2)c1COC12CCC(/C=C/c3ccc(Cc4nn[nH]n4)cc3)(CC1)CC2 [Example 619] | 213
Cc1nc(NCC23CCC(OCc4c(-c5c(Cl)cccc5Cl)noc4C4CC4)(CC2)CC3)sc1CC(=O)O [Example 577] | 860
O=C(O)Cc1ccc(/C=C/C23CCC(OCc4c(-c5c(Cl)cncc5Cl)noc4C4CC4)(CC2)CC3)c(F)c1 [Example 602] | 81
O=C(O)c1ccn2cc(OCC34CCC(OCc5c(-c6c(Cl)cncc6Cl)noc5C5CC5)(CC3)CC4)nc2c1 [Example 538] | 90
O=C(O)c1cnc(C#CC23CCC(OCc4c(-c5c(Cl)cncc5Cl)noc4C4CC4)(CC2)CC3)cn1 [Example 542] | 4880
O=C(O)COc1cc(/C=C/C23CCC(OCc4c(-c5c(Cl)cncc5Cl)noc4C4CC4)(CC2)CC3)ccn1 [Example 617] | 1460
O=C(O)c1cc2ccc(C#CC34CCC(OCc5c(-c6c(Cl)cncc6Cl)noc5C5CC5)(CC3)CC4)cc2c(N2CCNCC2)n1 [Example 573] | 1630
O=C(O)c1cnc2ccc(/C=C/C34CCC(OCc5c(-c6c(Cl)cncc6Cl)noc5C5CC5)(CC3)CC4)cn12 [Example 593] | 1130
Cn1c(C(=O)O)cc2c(/C=C/C34CCC(OCc5c(-c6c(Cl)cncc6Cl)noc5C5CC5)(CC3)CC4)cccc21 [Example 597] | 208
COc1nc(C(=O)O)nc2ccc(/C=C/C34CCC(OCc5c(-c6c(Cl)cncc6Cl)noc5C5CC5)(CC3)CC4)cc12 [Example 590] | 944
O=C(O)c1cc(OC2COC2)c2nc(C34CCC(OCc5c(-c6c(Cl)cncc6Cl)noc5C5CC5)(CC3)CC4)ccc2c1 [Example 544] | 118
COCCCOc1nc(C(=O)O)cc2cc(C#CC34CCC(OCc5c(-c6c(Cl)cncc6Cl)noc5C5CC5)(CC3)CC4)ccc12 [Example 549] | 126

Compound | EC50 [nM]
O=C(O)c1cc2ccc(C#CC34CCC(OCc5c(-c6c(Cl)cncc6Cl)noc5C5CC5)(CC3)CC4)cc2c(Nc2ccccc2)n1 [Example 550] | 186
O=C(O)Cc1ccc(C#CC23CCC(OCc4c(-c5c(Cl)cncc5Cl)noc4C4CC4)(CC2)CC3)c(C(F)(F)F)c1 [Example 565] | 115
O=C(O)c1cncc(/C=C/C23CCC(OCc4c(-c5c(Cl)cncc5Cl)noc4C4CC4)(CC2)CC3)c1 [Example 627] | 1150
O=C(O)c1cc2ccc(C#CC34CCC(OCc5c(-c6c(Cl)cncc6Cl)noc5C5CC5)(CC3)CC4)cc2c(N2CC(O)C2)n1 [Example 552] | 100
O=C(O)c1cc2ccc(/C=C/C34CCC(OCc5c(-c6c(Cl)cncc6Cl)noc5C5CC5)(CC3)CC4)cc2c(N2CC(CO)C2)n1 [Example 612] | 108
CCOc1cc(C(=O)O)nc2ccc(/C=C/C34CCC(OCc5c(-c6c(Cl)cncc6Cl)noc5C5CC5)(CC3)CC4)cc12 [Example 598] | 11
O=C(O)COCc1ccc(C#CC23CCC(OCc4c(-c5c(Cl)cncc5Cl)noc4C4CC4)(CC2)CC3)cc1 [Example 566] | 194
O=C(O)Cc1cccc(/C=C/C23CCC(OCc4c(-c5c(Cl)cncc5Cl)noc4C4CC4)(CC2)CC3)c1 [Example 600] | 2040
O=C(O)c1cc(OCC23CCC(OCc4c(-c5c(Cl)cncc5Cl)noc4C4CC4)(CC2)CC3)n(C2CC2)n1 [Example 541] | 59
O=C(O)CCc1ccc(C#CC23CCC(OCc4c(-c5c(Cl)cncc5Cl)noc4C4CC4)(CC2)CC3)cc1 [Example 564] | 175
O=C(O)c1ccc(/C=C/C23CCC(OCc4c(-c5c(Cl)cncc5Cl)noc4C4CC4)(CC2)CC3)cc1 [Example 625] | 350
Cc1c(OCC23CCC(OCc4c(-c5c(Cl)cncc5Cl)noc4C4CC4)(CC2)CC3)nn(C)c1C(=O)O [Example 534] | 248
CCc1cc(C(=O)O)c2ncc(C#CC34CCC(OCc5c(-c6c(Cl)cncc6Cl)noc5C5CC5)(CC3)CC4)n2c1 [Example 546] | 7
O=C(O)c1ccc2cc(/C=C/C34CCC(OCc5c(-c6c(Cl)cncc6Cl)noc5C5CC5)(CC3)CC4)ccc2n1 [Example 588] | 88
Cc1c(OCC23CCC(OCc4c(-c5c(Cl)cncc5Cl)noc4C4CC4)(CC2)CC3)nn(CC2CC2)c1C(=O)O [Example 532] | 148
O=C(O)c1cc2ccc(C#CC34CCC(OCc5c(-c6c(Cl)cncc6Cl)noc5C5CC5)(CC3)CC4)cc2c(OCCN2CCCC2)n1 [Example 574] | 1370
O=C(O)c1cc2ccc(C#CC34CCC(OCc5c(-c6c(Cl)cncc6Cl)noc5C5CC5)(CC3)CC4)cc2c(N2CCOCC2)n1 [Example 548] | 13
COC1CN(c2nc(C(=O)O)cc3ccc(/C=C/C45CCC(OCc6c(-c7c(Cl)cncc7Cl)noc6C6CC6)(CC4)CC5)cc23)C1 [Example 609] | 67
O=C(O)c1cc(C(F)(F)F)cc(COCC23CCC(OCc4c(-c5c(Cl)cncc5Cl)noc4C4CC4)(CC2)CC3)n1 [Example 527] | 86
CCOc1nc(C(=O)O)cc2ccc(OCC34CCC(OCc5c(-c6c(Cl)cncc6Cl)noc5C5CC5)(CC3)CC4)cc12 [Example 575] | 18
O=C(O)COc1ccc(/C=C/C23CCC(OCc4c(-c5c(Cl)cncc5Cl)noc4C4CC4)(CC2)CC3)c(F)c1 [Example 608] | 1030
O=C(O)c1cc2ccc(/C=C/C34CCC(OCc5c(-c6c(Cl)cncc6Cl)noc5C5CC5)(CC3)CC4)cc2c(N2CC(O)C2)n1 [Example 610] | 77
O=C(O)CCc1ccc(/C=C/C23CCC(OCc4c(-c5c(Cl)cncc5Cl)noc4C4CC4)(CC2)CC3)cc1F [Example 607] | 269
O=C(O)Cc1ccc(/C=C/C23CCC(OCc4c(-c5c(Cl)cncc5Cl)noc4C4CC4)(CC2)CC3)cc1 [Example 587] | 173
O=C(O)c1cc(/C=C/C23CCC(OCc4c(-c5c(Cl)cncc5Cl)noc4C4CC4)(CC2)CC3)ccn1 [Example 626] | 879
O=C(O)c1cc(OC2CCCC2)c2cc(/C=C/C34CCC(OCc5c(-c6c(Cl)cncc6Cl)noc5C5CC5)(CC3)CC4)ccc2n1 [Example 589] | 17
